Among the data in PubChem BioAssay (NCI) are GI50 and TGI values, retold here.

Test systems include A498 renal; CCRF-CEM leukemia; HOP-62 NSCLC; LOX IMVI melanoma; NCI-H226 lung; OVCAR-3 ovarian; OVCAR-8 ovarian; SN12C renal.
Common to all, as to experiment: NCI tumour cell line growth inhibition, 48 h

The structures appear in SMILES notation.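 Where inhibition never reached the appropriate level, the endpoint shown equals the highest concentration tested. Otherwise, values were interpolated linearly from a five-concentration, 48-hour dose response in 96-well plates. GI50: concentration for 50% inhibition of growth. TGI is the concentration that stops growth completely.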

For the compound `CCCCCCCC[C@@H](O)CC(=O)N[C@@H](CC(N)=O)C(=O)N[C@@H](CCC(N)=O)C(=O)N[C@@H](CC(=O)c1cc(C)cc(O)c1C(=O)c1c(O)cccc1O)CC(C)C`, the GI50 was 2290 nM in the assay on A498 renal; 0.398 µM in the assay on CCRF-CEM leukemia; 0.86 µM with HOP-62 NSCLC; 1.32 µM in the assay with LOX IMVI melanoma; 0.237 µM in the assay with NCI-H226 lung; 307 nM in the assay on OVCAR-3 ovarian. The values for the GI50 with OVCAR-8 ovarian and with SN12C renal were 3.23 µM and 2.13 µM, respectively. Besides, the TGI in the assay with A498 renal is 7.44 µM; with CCRF-CEM leukemia, greater than 100 µM; in the assay on HOP-62 NSCLC, 4.92 µM; in the assay with LOX IMVI melanoma, 3.9 µM; in the assay on NCI-H226 lung it was 0.746 µM; with OVCAR-3 ovarian, 1.2 µM. The TGI was determined as 46.6 µM in the assay on OVCAR-8 ovarian and 15.8 µM with SN12C renal.
In the case of `CC1CN1C(=O)NCCCCCCNC(=O)N1CC1C` (centres undefined), the TGI with A498 renal was greater than 100 µM; in the assay with CCRF-CEM leukemia it was greater than 93 µM; in the assay with HOP-62 NSCLC, greater than 100 µM; with LOX IMVI melanoma, greater than 60.3 µM; with NCI-H226 lung it was greater than 100 µM; in the assay with OVCAR-3 ovarian it was greater than 100 µM. The TGI in the assay on OVCAR-8 ovarian and in the assay on SN12C renal was greater than 100 µM each time.
Take `O=C(O)C(=Cc1ccc(-c2ccccc2)cc1)C(=O)O`: the TGI was 40 µM in the assay with A498 renal; greater than 100 µM in the assay on CCRF-CEM leukemia; 22.5 µM with HOP-62 NSCLC; 25.9 µM in the assay with LOX IMVI melanoma; 48.4 µM in the assay with NCI-H226 lung; 17.5 µM in the assay with OVCAR-3 ovarian. For the same compound, the values for the TGI with OVCAR-8 ovarian and in the assay on SN12C renal were greater than 92 µM and 35.1 µM, respectively.
`Cc1ccc2c(c1)Sc1c(ccc3ccccc13)N2`: the GI50 with A498 renal is 83900 nM; in the assay with CCRF-CEM leukemia, 12.4 µM; in the assay on HOP-62 NSCLC, greater than 100 µM; in the assay with LOX IMVI melanoma, 8.91 µM; with NCI-H226 lung, 11.8 µM; with OVCAR-3 ovarian, greater than 100000 nM. For the same compound, the GI50 in the assay on OVCAR-8 ovarian is 35 µM; with SN12C renal, greater than 100 µM. The TGI in the assay with A498 renal, with CCRF-CEM leukemia, in the assay on HOP-62 NSCLC, in the assay with LOX IMVI melanoma, in the assay on NCI-H226 lung and in the assay with OVCAR-3 ovarian was greater than 100 µM throughout. For the same compound, the TGI with OVCAR-8 ovarian and in the assay on SN12C renal was greater than 100 µM throughout.
Take `O=[N+]([O-])c1ccc(C=NC2CCCCC2)cc1`: the TGI in the assay on A498 renal, in the assay on CCRF-CEM leukemia, with HOP-62 NSCLC, with LOX IMVI melanoma, in the assay on NCI-H226 lung and in the assay on OVCAR-3 ovarian was greater than 100 µM each time. Also, the TGI with OVCAR-8 ovarian and in the assay with SN12C renal was greater than 100 µM each time.
`O=C(CCc1cc(-c2ccccc2)nc(=S)[nH]1)N(Cc1ccccc1)Cc1ccccc1`: the TGI in the assay with A498 renal, with CCRF-CEM leukemia, in the assay with HOP-62 NSCLC, with LOX IMVI melanoma, with NCI-H226 lung and in the assay with OVCAR-3 ovarian was greater than 100 µM in each case. In addition, the TGI with OVCAR-8 ovarian and in the assay with SN12C renal was greater than 100 µM throughout.
In the case of `Cc1cc(Cl)cc2c1NC(=O)C2(O)CC(=O)c1ccco1` (centres undefined), the TGI was greater than 100 µM in the assay with A498 renal; 57.3 µM in the assay on CCRF-CEM leukemia; greater than 100 µM with HOP-62 NSCLC; greater than 69.8 µM with LOX IMVI melanoma; greater than 100 µM in the assay on NCI-H226 lung; greater than 100 µM with OVCAR-3 ovarian. Besides, the TGI in the assay with OVCAR-8 ovarian and in the assay with SN12C renal was greater than 100 µM each time.
As to `COc1ccc2c(c1)[n+](=O)c(C(=O)C/C(=N/OCCCc1ccccc1)C(=O)NC13CC4CC(CC(C4)C1)C3)c(C)n2[O-]`, the TGI in the assay on A498 renal, with CCRF-CEM leukemia, with HOP-62 NSCLC, in the assay with LOX IMVI melanoma, in the assay on NCI-H226 lung and in the assay on OVCAR-3 ovarian was greater than 100 µM each time. Moreover, the TGI in the assay with OVCAR-8 ovarian and in the assay on SN12C renal was greater than 100 µM throughout.
Regarding `N#C/C(=C\c1ccc2ccccc2c1)c1ccccc1`, the TGI in the assay on A498 renal was 76.4 µM; in the assay on CCRF-CEM leukemia, 78.1 µM; in the assay with HOP-62 NSCLC it was 74.6 µM; in the assay on LOX IMVI melanoma, greater than 100 µM; in the assay with NCI-H226 lung, greater than 100 µM; with OVCAR-3 ovarian it was 28.3 µM. For the same compound, the results for the TGI in the assay with OVCAR-8 ovarian and in the assay on SN12C renal were 96.7 µM and greater than 100 µM, respectively.
In the case of `CC1(C)OC2=C(CC1Br)C(=O)C(=O)c1ccccc12` (centres undefined), the GI50 with A498 renal was 1430 nM; in the assay on CCRF-CEM leukemia it was 3.56 µM; in the assay on HOP-62 NSCLC, 1.99 µM; in the assay with LOX IMVI melanoma, 1 µM; in the assay with NCI-H226 lung, 1.7 µM; in the assay on OVCAR-3 ovarian, 1600 nM. Also, the GI50 in the assay on OVCAR-8 ovarian is 2.02 µM; with SN12C renal, 1.84 µM. The TGI with A498 renal was 3.07 µM; in the assay with CCRF-CEM leukemia, greater than 100 µM; in the assay on HOP-62 NSCLC it was 3.62 µM; in the assay with LOX IMVI melanoma, 3.39 µM; with NCI-H226 lung it was 3.12 µM; in the assay on OVCAR-3 ovarian, 2.98 µM. Also, the TGI in the assay with OVCAR-8 ovarian was found to be 3.89 µM; in the assay on SN12C renal it was 3.75 µM.
For the compound `O=C(Nc1ccncc1)C(=O)c1cn(S(=O)(=O)c2cccc(F)c2)c2ccccc12`, the GI50 in the assay with A498 renal is 13400 nM; with CCRF-CEM leukemia, 2.58 µM; with HOP-62 NSCLC, 3.58 µM; in the assay on LOX IMVI melanoma it was 3.51 µM; in the assay with NCI-H226 lung it was 16.9 µM; with OVCAR-3 ovarian, 2650 nM. Besides, the GI50 in the assay with OVCAR-8 ovarian was 5.21 µM; in the assay with SN12C renal it was 5.25 µM. Besides, the TGI is 97 µM in the assay on A498 renal; greater than 100 µM with CCRF-CEM leukemia; 61 µM in the assay on HOP-62 NSCLC; greater than 100 µM in the assay on LOX IMVI melanoma; greater than 100 µM with NCI-H226 lung; 12.5 µM in the assay on OVCAR-3 ovarian. Also, the TGI in the assay on OVCAR-8 ovarian and in the assay with SN12C renal was greater than 100 µM throughout.
As for `CCCn1c(=S)sc2c1nc(C)n1c(Nc3ccccc3)nnc21`, the GI50 with A498 renal is 2520 nM; in the assay with CCRF-CEM leukemia, 4.32 µM; in the assay on HOP-62 NSCLC it was 7.15 µM; with LOX IMVI melanoma, 3.67 µM; in the assay with NCI-H226 lung, 4.98 µM; in the assay with OVCAR-8 ovarian, 4.92 µM. Further, the GI50 in the assay on SN12C renal is 4.63 µM. For the same compound, the TGI with A498 renal was 14.1 µM; with CCRF-CEM leukemia, greater than 100 µM; with HOP-62 NSCLC, 23.9 µM; with LOX IMVI melanoma it was greater than 100 µM; in the assay on NCI-H226 lung it was 23.6 µM; in the assay on OVCAR-8 ovarian, greater than 100 µM. In addition, the TGI with SN12C renal is greater than 100 µM.
